Source: PubChem BioAssay (NCI)
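A five-concentration, 48-hour dose response in 96-well plates underlies each endpoint, interpolated linearly between surrounding concentrations. The concentration for 50% growth inhibition is given as GI50. TGI marks complete inhibition of growth.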

Legend:
Test in all cases: NCI tumour cell line growth inhibition, 48 h
OVCAR-8 ovarian = test system: OVCAR-8 ovarian
UACC-62 melanoma = test system: UACC-62 melanoma
KM12 colon = test system: KM12 colon
IGROV1 ovarian = test system: IGROV1 ovarian
DU-145 prostate = test system: DU-145 prostate
HOP-92 NSCLC = test system: HOP-92 NSCLC
EKVX NSCLC = test system: EKVX NSCLC
NCI-H460 lung = test system: NCI-H460 lung
SNB-19 CNS = test system: SNB-19 CNS
M14 melanoma = test system: M14 melanoma

| SMILES | TGI (OVCAR-8 ovarian) | TGI (UACC-62 melanoma) | TGI (KM12 colon) | TGI (IGROV1 ovarian) | TGI (DU-145 prostate) | TGI (HOP-92 NSCLC) | TGI (EKVX NSCLC) | TGI (NCI-H460 lung) | TGI (SNB-19 CNS) | GI50 (OVCAR-8 ovarian) | GI50 (UACC-62 melanoma) | GI50 (KM12 colon) | GI50 (IGROV1 ovarian) | GI50 (DU-145 prostate) | GI50 (HOP-92 NSCLC) | GI50 (EKVX NSCLC) | GI50 (NCI-H460 lung) | GI50 (SNB-19 CNS) | TGI (M14 melanoma) |
| --- | --- | --- | --- | --- | --- | --- | --- | --- | --- | --- | --- | --- | --- | --- | --- | --- | --- | --- | --- |
| CC(C)(CO)CNc1nc(N)nc(Cl)c1N | > 100 µM | > 100 µM | > 100 µM | > 100 µM | > 100 µM | > 100 µM | > 100 µM | > 100 µM | > 100 µM | – | – | – | – | – | – | – | – | – | – |
| N#Cc1c(NC(=O)c2ccccc2)sc2c1CCC(=O)C2 | 45 µM | 1.93 µM | 5.22 µM | 11 µM | > 100 µM | 2.72 µM | 10.4 µM | > 100 µM | > 100 µM | 1.27 µM | 0.404 µM | 0.711 µM | 1.59 µM | 2.98 µM | 0.821 µM | 2.33 µM | 2.22 µM | 3.48 µM | – |
| COc1cc([C@@H]2c3cc4c(cc3[C@@H](NC(=O)c3ccc(N)cc3)C3COC(=O)[C@@H]32)OCO4)cc(OC)c1O (stereo partly drawn) | 16.3 µM | 10.9 µM | 13.8 µM | 20.2 µM | – | > 100 µM | 23.7 µM | 10.9 µM | 17.4 µM | – | – | – | – | – | – | – | – | – | > 100 µM |
| COc1cc(C2C3=C(CCC3=O)Oc3cc4c(cc32)OCO4)cc(OC)c1OC (stereo not drawn) | > 100 µM | > 100 µM | – | > 100 µM | – | 6.47 µM | > 100 µM | > 100 µM | > 100 µM | – | – | – | – | – | – | – | – | – | > 100 µM |
| O=[N+]([O-])c1cccc([N+](=O)[O-])c1S(=O)(=O)c1ccccc1 | 6.21 µM | – | 32 µM | 4.2 µM | 20 µM | 7.18 µM | 42.8 µM | 46.7 µM | 35.3 µM | – | – | – | – | – | – | – | – | – | 6.59 µM |
| O=c1[nH]c(=O)n(C2OC(COP(=O)(O)OP(=O)(O)O)C(O)C2O)cc1F (stereo not drawn) | > 50 µM | > 42.6 µM | > 50 µM | > 50 µM | – | > 50 µM | 42.5 µM | 12.7 µM | > 50 µM | – | – | – | – | – | – | – | – | – | > 50 µM |
| COc1cccc(NC(=O)CSc2nnc(-c3ccc(N=Cc4ccc(Cl)cc4)cc3)o2)c1 | 58.4 µM | 35.1 µM | 31.3 µM | – | – | – | > 100 µM | 60.6 µM | 53.2 µM | – | – | – | – | – | – | – | – | – | 47 µM |
| COC(=O)C(/C(=N/NC(=O)c1ccncc1)C(=O)Nc1ccccc1OC)c1nc2ccc(Cl)cc2[nH]c1=O (stereo not drawn) | > 100 µM | > 100 µM | > 100 µM | > 100 µM | – | > 100 µM | > 100 µM | > 100 µM | – | – | – | – | – | – | – | – | – | – | > 100 µM |
| N#CCCC1C(C#N)C2CC1C1C3C=CC(C3)C21 (stereo not drawn) | > 100 µM | > 100 µM | > 100 µM | > 100 µM | > 100 µM | > 100 µM | > 100 µM | – | > 100 µM | – | – | – | – | – | – | – | – | – | > 100 µM |
| NC(Cc1cc(I)c(O)c(I)c1)C(=O)O (stereo not drawn) | > 500 µM | > 357 µM | > 500 µM | > 500 µM | – | > 107 µM | > 316 µM | > 349 µM | > 500 µM | – | – | – | – | – | – | – | – | – | – |
| Cn1c(=O)c2c(-c3ccccc3)onc2n(C)c1=O | > 100 µM | > 100 µM | > 100 µM | 55.3 µM | – | > 100 µM | > 100 µM | > 100 µM | > 100 µM | – | – | – | – | – | – | – | – | – | > 100 µM |
